# Results from publication PMC4402707 (Neurotherapeutics : the journal of the American Society for …, 2009).
# Where two headings read alike, the source gives them in different places. Where a SMILES comes first, the peptide text is derived from it. [ ]: non-standard residue; d: D form. The star is where a group is joined. Fmoc = O=C(OCC1c2ccccc2-c2ccccc21)*; Cha = N[C@@H](CC1CCCCC1)C(=O)O; AMC = Cc1cc(=O)oc2cc(N*)ccc12
# Key:
# [1] = tested on: corneal kindled mouse (fully expressed secondarily generalized seizure); details: i.p.; ref Rowley et al., manuscript in preparation; cited from earlier work
# [2] = tested on: CF-1 mice (seizures induced by 6 Hz corneal stimulation); details: cited from earlier work; for ED50, 6 Hz model, 44 mA (95% confidence interval) / ED50, 6 Hz model, 32 mA (95% confidence interval): ref Barton et al., 2001[19]
# [3] = tested on: non-galanin receptors (5-HT-1A and 1B, D2 dopamine, ghrelin, melanocortin, NPY, μ-opioid receptors); details: at 10 μM, NPY (galnon only), μ-opioid (galmic only); cited from earlier work
# [4] = tested on: galanin receptors GalR1 and GalR2; details: cited from earlier work; for Fold difference in affinity for GalR1 and GalR2: receptor subtype specificity
# [5] = tested on: CF-1 mice (seizures induced by 6 Hz corneal stimulation); experiment: 6 Hz psychomotor seizure test; type: in vivo, mouse; details: 4 mg/kg i.p.
molecule,measurement,setting,value
"NC(=O)N1c2ccccc2C=Cc2ccccc21 [CBZ, carbamazepine]",Active dose in corneal kindled mouse model,[1],33 mg/kg
"CCC1(C)CC(=O)NC1=O (centres unmarked) [Ethosuximide, ethosuximide]","ED50, 6 Hz model, 44 mA (95% confidence interval)",[2]; i.p.,> 600 mg/kg
COC[C@@H](NC(C)=O)C(=O)NCc1ccccc1 [Lacosamide],ED50,"[2]; read-out: ED50, 6 Hz model, 32 mA (95% confidence interval), i.p., 32 mA, ref Stöhr et al., 2007[44]",9.9 mg/kg
"Nc1nnc(-c2cccc(Cl)c2Cl)c(N)n1 [Lamotrigine, lamotrigine]","ED50, 6 Hz model, 32 mA (95% confidence interval)","[2]; i.p., 32 mA",> 60 mg/kg
same,"ED50, 6 Hz model, 44 mA (95% confidence interval)",[2]; i.p.,> 60 mg/kg
"O=C1NC(=O)C(c2ccccc2)(c2ccccc2)N1 [Phenytoin, phenytoin]","ED50, 6 Hz model, 32 mA (95% confidence interval)","[2]; i.p., 32 mA",> 60 mg/kg
same,"ED50, 6 Hz model, 44 mA (95% confidence interval)",[2]; i.p.,> 60 mg/kg
COC(=O)[C@H](CCCCN)NC(=O)[C@]1(C)NC(=O)c2nc(oc2C)[C@](C)(C(=O)NC2c3ccccc3-c3ccccc32)NC(=O)c2nc(oc2C)[C@](C)(C(=O)NCC2CCCCC2)NC(=O)c2nc1oc2C [galmic],Interaction with non-galanin receptors,[3],interact with a variety of non-galanin receptors
same,Fold lower affinity for galanin receptors relative to the native peptide,[4],"10,000-100,000 fold"
same,Fold difference in affinity for GalR1 and GalR2,[4],2-3 fold
Cc1cc(=O)oc2cc(NC(=O)[C@H](CCCCN)NC(=O)[C@H](CC3CCCCC3)NC(=O)OCC3c4ccccc4-c4ccccc43)ccc12 [galnon] (Fmoc-[Cha]-Lys-{AMC}),Interaction with non-galanin receptors,[3],interact with a variety of non-galanin receptors
same,Fold lower affinity for galanin receptors relative to the native peptide,[4],"10,000-100,000 fold"
same,Fold difference in affinity for GalR1 and GalR2,[4],2-3 fold
Ac-YLLGPKK(Lys-P)K [NAX 5055 truncated],Activity in 6 Hz 32 mA model (in words),"[5]; 32 mA, tested across time",inactive
same,"Mice protected from seizures / mice tested, 15′","[5]; 6 Hz 32 mA, CF-1 mice, 15 min, groups of four",0/4
same,"Mice protected from seizures / mice tested, 30′","[5]; 6 Hz 32 mA, CF-1 mice, 30 min, groups of four",0/4
same,"Mice protected from seizures / mice tested, 60′","[5]; 6 Hz 32 mA, CF-1 mice, 60 min, groups of four",0/4
same,"Mice protected from seizures / mice tested, 120′","[5]; 6 Hz 32 mA, CF-1 mice, 120 min, groups of four",0/4
same,"Mice protected from seizures / mice tested, 240′","[5]; 6 Hz 32 mA, CF-1 mice, 240 min, groups of four",0/4
GWTLNSAGYLLGPHAV-NH2 [Gal(1-16)],Activity in 6 Hz 32 mA model (in words),"[2]; 4 mg/kg i.p., 32 mA, ref Bulaj et al, 2008.[17]",inactive
